Measurements from US10875876B2, “Cyclized sulfamoylarylamide derivatives and the use thereof as medicaments for the treatment of hepatitis B” (priority 2015, dated 2020).
Where two headings read alike, the source gives them in different places.

Experiments:
[1] = test system: HBV; test: anti HBV activity, HepG2.117 cell line, intracellular HBV DNA by realtime PCR; format: cell-based; settings: HepG2.117 cell line (Tet-off), 3 days of treatment, intracellular HBV DNA quantified by realtime PCR, read-out: HBV-AVE-HepG2.117 EC50
How it was run: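 Readout was intracellular HBV DNA by real-time PCR (HBV-specific primers and probe) after 3 days of compound exposure. Serial dilutions were tested in duplicate on HepG2.117 cells, a stable inducible HBV producer in which replication is switched on when doxycycline is absent.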

[2] = test system: HepG2 cells
[3] = from C=CCCCCC(C)NS(=O)(=O)c1cn(C)c(C(=O)OC)c1CC=C; rcm bond; Grubbs catalyst 2nd generation; DCE; 3.4 mM; 80.0 °C; 2.0 h
[4] = test system: HepG2 cells; test: Cytotoxicity in HepG2 cells, Resazurin assay; settings: read-out: TOX-HepG2-4 d CC50; HepG2 cells incubated for 4 days, viability by Resazurin assay

Structure (SMILES) | EC50 [1] [nM] | CC50 [2] [µM] | ring closure, yield of all isomers [3] [%] | CC50 [4] [µM] | EC50 ([1]; Hepatitis B virus, HepG2.117, 72 h) [nM]
C[C@@H](N1CCCCc2c(cn(C)c2C(=O)Nc2ccc(F)c(F)c2)S1(=O)=O)C(F)(F)F [Compound 4, N-(3,4-difluorophenyl)-8-methyl-1,1-dioxo-2-[(1R)-2,2,2-trifluoro-1-methyl-ethyl]-3,4,5,6-tetrahydropyrrolo[3,4-g]thiazocine-7-carboxamide] | 1090 | > 25 |  |  | 
COC(=O)c1c2c(cn1C)S(=O)(=O)NC(C)CCCC/C=C\C2 (stereo not drawn) |  |  | 61.1 |  | 
Cn1ccc(C2(C)COc3c(cn(C)c3C(=O)Nc3ccc(F)c(F)c3)S(=O)(=O)N2)n1 (single isomer, unassigned) [Compound 192b, N-(3,4-difluorophenyl)-3,7-dimethyl-3-(1-methylpyrazol-3-yl)-1,1-dioxo-2,4-dihydropyrrolo[3,4-b][1,4,5]oxathiazepine-6-carboxamide] | 24 |  |  | > 25 | 
Cn1cc2c(c1C(=O)Nc1ccc(F)c(F)c1)OCC(C)(CO)NS2(=O)=O (single isomer, unassigned) [Compound 203b, N-(3,4-difluorophenyl)-3-(hydroxymethyl)-3,7-dimethyl-1,1-dioxo-2,4-dihydropyrrolo[3,4-b][1,4,5]oxathiazepine-6-carboxamide] | 59 |  |  | > 25 | 
Cc1cc(CC2(C)COc3c(cn(C)c3C(=O)Nc3cc(F)c(F)c(F)c3)S(=O)(=O)N2)no1 (single isomer, unassigned) [Compound 170b, 3,7-dimethyl-3-[(5-methylisoxazol-3-yl)methyl]-1,1-dioxo-N-(3,4,5-trifluorophenyl)-2,4-dihydropyrrolo[3,4-b][1,4,5]oxathiazepine-6-carboxamide] |  |  |  | > 25 | 7
CC(NCC(F)(F)F)C1CCc2c(cn(C)c2C(=O)Nc2cc(F)c(F)c(F)c2)S(=O)(=O)N1 (single isomer, unassigned) [Compound 218d, 7-methyl-1,1-dioxo-3-[1-(2,2,2-trifluoroethylamino)ethyl]-N-(3,4,5-trifluorophenyl)-2,3,4,5-tetrahydropyrrolo[3,4-f]thiazepine-6-carboxamide] | 21 |  |  | > 25 | 
CC(C)C(O)C1COc2c(cn(C)c2C(=O)Nc2ccc(F)c(F)c2)S(=O)(=O)N1 (single isomer, unassigned) [Compound 114b, N-(3,4-difluorophenyl)-3-(1-hydroxy-2-methyl-propyl)-7-methyl-1,1-dioxo-3,4-dihydro-2H-pyrrolo[3,4-b][1,4,5]oxathiazepine-6-carboxamide] | 8 |  |  | > 25 | 
CC1CCn2c(C(=O)Nc3ccc(F)c(F)c3)nc(Br)c2S(=O)(=O)N1 (stereo not drawn) [compound 245] | > 25000 |  |  | > 25 | 
Cc1cc(CC2(C)COc3c(cn(C)c3C(=O)Nc3ccnc(C(F)F)c3)S(=O)(=O)N2)no1 (single isomer, unassigned) [Compound 209b, N-[2-(difluoromethyl)-4-pyridyl]-3,7-dimethyl-3-[(5-methylisoxazol-3-yl)methyl]-1,1-dioxo-2,4-dihydropyrrolo[3,4-b][1,4,5]oxathiazepine-6-carboxamide] | 18 |  |  | > 25 | 
C[C@@H]1NS(=O)(=O)c2cn(C)c(C(=O)Nc3ccc(F)c(F)c3)c2O[C@@H]1C [compound 228] | > 500 |  |  | > 25 | 
Cc1cc(CC2(C)COc3c(cn(C)c3C(=O)Nc3ccc(F)c(F)c3)S(=O)(=O)N2)no1 (single isomer, unassigned) [Compound 162b, N-(3,4-difluorophenyl)-3,7-dimethyl-3-[(5-methylisoxazol-3-yl)methyl]-1,1-dioxo-2,4-dihydropyrrolo[3,4-b][1,4,5]oxathiazepine-6-carboxamide] | 11 |  |  | > 25 | 
